Measured values taken from the kinase profiling compilation of Christmann-Franck et al. (2016).

Key:
MAP3K12 (human) [1] = target: MAP3K12 (human) (UniProt Q12852)
CASK (human) = CASK (human) (UniProt O14936); assay: KINOMEscan competition binding; conditions: compound 10.0 µM
MAP2K2 (human) = MAP2K2 (human) (UniProt P36507); assay: KINOMEscan competition binding; conditions: compound 10.0 µM
FLT3 (human) = FLT3 (human) (UniProt P36888); assay: KINOMEscan competition binding; conditions: compound 10.0 µM
Sequence of FLT3 (human) (P36888 whole entry, looked up): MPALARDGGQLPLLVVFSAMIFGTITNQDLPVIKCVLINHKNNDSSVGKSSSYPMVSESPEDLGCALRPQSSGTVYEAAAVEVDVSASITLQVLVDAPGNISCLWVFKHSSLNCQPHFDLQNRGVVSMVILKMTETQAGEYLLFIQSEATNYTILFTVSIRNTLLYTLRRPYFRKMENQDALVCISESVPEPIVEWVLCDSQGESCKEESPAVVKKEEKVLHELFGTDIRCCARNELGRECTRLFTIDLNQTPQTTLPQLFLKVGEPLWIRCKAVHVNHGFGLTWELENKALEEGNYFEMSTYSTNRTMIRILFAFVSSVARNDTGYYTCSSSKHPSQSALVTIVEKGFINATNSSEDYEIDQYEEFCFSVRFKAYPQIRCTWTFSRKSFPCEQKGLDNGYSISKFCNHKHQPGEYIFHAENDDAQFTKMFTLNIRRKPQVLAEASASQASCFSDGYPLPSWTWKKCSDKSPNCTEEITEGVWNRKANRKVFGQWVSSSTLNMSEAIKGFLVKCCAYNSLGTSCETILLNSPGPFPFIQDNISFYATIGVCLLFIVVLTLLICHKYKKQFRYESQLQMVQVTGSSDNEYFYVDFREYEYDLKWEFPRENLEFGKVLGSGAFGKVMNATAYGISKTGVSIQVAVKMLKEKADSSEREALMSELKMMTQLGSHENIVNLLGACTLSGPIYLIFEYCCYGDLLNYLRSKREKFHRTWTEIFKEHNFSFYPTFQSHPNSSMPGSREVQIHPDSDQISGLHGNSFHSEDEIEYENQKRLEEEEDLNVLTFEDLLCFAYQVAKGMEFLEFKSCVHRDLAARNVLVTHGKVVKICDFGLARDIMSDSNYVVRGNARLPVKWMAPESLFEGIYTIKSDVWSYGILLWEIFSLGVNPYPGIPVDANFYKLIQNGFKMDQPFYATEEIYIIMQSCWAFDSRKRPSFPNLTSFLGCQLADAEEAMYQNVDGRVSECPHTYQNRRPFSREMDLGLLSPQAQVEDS

MAP3K12 (human) [2] = target: MAP3K12 (human) (UniProt Q12852); assay: KINOMEscan competition binding; conditions: compound 10.0 µM
MAP4K1 (human) = MAP4K1 (human) (UniProt Q92918); assay: KINOMEscan competition binding; conditions: compound 10.0 µM
Sequence of MAP4K1 (human) (Q92918 whole entry, looked up): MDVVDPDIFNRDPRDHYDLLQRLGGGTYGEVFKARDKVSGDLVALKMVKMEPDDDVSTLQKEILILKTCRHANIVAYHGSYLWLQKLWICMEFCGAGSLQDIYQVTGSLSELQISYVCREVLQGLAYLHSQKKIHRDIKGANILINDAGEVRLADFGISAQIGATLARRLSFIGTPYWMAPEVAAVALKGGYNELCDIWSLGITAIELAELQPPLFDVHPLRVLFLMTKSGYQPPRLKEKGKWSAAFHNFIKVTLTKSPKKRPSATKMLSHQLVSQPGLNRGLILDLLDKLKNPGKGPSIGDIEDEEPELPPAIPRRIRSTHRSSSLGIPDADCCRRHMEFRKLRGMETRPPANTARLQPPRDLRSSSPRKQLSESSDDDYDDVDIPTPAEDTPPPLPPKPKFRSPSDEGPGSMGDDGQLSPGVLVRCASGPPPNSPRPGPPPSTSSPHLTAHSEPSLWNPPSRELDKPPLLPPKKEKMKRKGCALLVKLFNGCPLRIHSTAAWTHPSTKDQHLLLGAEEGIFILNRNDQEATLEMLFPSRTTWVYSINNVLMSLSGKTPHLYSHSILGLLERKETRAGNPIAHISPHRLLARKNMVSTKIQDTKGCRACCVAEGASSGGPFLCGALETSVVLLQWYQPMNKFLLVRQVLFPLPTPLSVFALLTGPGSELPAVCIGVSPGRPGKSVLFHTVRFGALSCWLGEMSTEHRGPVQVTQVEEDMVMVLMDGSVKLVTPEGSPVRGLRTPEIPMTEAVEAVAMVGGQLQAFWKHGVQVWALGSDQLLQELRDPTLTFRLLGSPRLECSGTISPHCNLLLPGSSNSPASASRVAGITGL

PLK3 (human) = PLK3 (human) (UniProt Q9H4B4); assay: KINOMEscan competition binding; conditions: compound 10.0 µM
Sequence of PLK3 (human) (Q9H4B4 whole entry, looked up): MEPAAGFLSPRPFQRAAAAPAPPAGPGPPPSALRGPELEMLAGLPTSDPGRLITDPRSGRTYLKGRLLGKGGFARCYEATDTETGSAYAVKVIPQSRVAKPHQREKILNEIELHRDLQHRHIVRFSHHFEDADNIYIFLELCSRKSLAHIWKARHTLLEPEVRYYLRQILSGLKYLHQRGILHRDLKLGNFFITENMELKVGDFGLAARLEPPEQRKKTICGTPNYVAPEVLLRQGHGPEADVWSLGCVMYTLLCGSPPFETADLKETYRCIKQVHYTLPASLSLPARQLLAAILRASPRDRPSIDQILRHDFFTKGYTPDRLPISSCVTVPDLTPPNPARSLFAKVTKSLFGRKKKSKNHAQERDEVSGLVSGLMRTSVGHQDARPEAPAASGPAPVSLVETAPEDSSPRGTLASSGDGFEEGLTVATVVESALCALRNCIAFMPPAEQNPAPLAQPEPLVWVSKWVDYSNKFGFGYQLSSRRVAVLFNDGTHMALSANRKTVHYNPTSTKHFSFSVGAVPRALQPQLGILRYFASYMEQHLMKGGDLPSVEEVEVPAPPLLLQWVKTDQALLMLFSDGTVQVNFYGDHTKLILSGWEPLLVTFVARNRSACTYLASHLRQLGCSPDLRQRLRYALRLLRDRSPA

ACVR2B (human) = ACVR2B (human) (UniProt Q13705); assay: KINOMEscan competition binding; conditions: compound 10.0 µM
Sequence of ACVR2B (human) (Q13705 whole entry, looked up): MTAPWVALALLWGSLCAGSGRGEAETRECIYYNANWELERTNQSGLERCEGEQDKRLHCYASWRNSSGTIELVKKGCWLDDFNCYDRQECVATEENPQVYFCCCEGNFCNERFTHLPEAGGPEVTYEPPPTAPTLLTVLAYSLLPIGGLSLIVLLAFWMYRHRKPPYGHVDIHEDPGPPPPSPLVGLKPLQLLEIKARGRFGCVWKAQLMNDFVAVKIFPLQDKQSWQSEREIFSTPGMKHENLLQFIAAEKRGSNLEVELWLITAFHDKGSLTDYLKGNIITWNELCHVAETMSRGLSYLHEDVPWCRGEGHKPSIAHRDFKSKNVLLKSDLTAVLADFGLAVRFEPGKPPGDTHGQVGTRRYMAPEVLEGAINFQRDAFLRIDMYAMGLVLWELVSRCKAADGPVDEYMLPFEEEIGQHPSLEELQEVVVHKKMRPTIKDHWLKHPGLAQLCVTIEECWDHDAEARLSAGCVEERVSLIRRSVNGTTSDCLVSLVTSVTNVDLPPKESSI

CDK11B (human) = CDK11B (human) (UniProt P21127); assay: KINOMEscan competition binding; conditions: compound 10.0 µM
Sequence of CDK11B (human) (P21127 whole entry, looked up): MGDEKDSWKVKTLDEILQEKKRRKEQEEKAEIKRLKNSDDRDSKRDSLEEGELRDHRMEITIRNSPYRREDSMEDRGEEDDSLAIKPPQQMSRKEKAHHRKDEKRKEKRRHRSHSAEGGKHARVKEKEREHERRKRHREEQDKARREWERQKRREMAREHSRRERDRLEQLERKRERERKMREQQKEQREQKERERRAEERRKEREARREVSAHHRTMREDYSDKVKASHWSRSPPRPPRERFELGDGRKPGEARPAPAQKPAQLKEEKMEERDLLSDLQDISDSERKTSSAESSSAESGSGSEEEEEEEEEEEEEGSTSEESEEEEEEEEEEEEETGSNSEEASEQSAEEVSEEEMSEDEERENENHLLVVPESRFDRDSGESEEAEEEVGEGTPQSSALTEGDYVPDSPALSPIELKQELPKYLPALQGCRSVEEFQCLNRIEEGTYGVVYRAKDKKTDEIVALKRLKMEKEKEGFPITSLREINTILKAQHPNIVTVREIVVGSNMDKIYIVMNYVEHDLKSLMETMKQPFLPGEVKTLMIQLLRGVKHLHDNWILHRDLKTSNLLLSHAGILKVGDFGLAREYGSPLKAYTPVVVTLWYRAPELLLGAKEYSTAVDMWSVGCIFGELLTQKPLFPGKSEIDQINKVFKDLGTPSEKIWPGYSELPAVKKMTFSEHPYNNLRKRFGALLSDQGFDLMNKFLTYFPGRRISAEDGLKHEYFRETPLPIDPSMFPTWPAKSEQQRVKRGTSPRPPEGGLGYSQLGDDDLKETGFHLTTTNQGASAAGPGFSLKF

Sequence of MAP3K12 (human) (Q12852 whole entry, looked up): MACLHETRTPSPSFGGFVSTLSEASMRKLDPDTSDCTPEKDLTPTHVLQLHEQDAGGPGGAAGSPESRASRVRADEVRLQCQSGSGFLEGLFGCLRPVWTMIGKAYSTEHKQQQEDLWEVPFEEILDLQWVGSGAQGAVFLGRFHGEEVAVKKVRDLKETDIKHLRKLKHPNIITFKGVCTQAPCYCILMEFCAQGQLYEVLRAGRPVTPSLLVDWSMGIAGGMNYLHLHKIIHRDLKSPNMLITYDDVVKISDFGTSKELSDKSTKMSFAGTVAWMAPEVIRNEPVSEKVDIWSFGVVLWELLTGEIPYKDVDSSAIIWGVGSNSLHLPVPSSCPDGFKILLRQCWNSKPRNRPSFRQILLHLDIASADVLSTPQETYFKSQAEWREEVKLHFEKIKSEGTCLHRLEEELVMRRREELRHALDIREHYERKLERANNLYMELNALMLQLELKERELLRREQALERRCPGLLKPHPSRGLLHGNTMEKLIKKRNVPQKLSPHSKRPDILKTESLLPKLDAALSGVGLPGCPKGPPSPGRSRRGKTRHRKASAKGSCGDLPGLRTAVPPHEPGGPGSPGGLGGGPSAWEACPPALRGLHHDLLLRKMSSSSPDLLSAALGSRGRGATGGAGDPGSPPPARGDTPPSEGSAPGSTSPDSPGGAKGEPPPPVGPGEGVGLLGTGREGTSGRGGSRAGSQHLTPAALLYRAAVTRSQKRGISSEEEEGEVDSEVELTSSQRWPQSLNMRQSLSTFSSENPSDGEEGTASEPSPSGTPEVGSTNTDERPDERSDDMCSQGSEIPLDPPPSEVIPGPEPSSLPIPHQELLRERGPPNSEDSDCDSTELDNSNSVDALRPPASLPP
Sequence of MAP2K2 (human) (P36507 whole entry, looked up): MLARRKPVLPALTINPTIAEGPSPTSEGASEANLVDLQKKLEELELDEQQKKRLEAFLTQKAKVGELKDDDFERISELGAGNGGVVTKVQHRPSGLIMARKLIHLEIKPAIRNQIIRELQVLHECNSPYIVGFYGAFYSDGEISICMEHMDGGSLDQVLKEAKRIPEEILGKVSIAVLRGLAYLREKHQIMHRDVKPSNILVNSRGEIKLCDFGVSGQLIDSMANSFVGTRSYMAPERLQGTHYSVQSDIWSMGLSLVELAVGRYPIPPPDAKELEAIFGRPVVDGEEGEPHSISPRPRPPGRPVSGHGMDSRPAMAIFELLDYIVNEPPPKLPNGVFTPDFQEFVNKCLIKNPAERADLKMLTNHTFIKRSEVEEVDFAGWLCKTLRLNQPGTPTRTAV

**Q.** For `O=C(Nc1ccc(Oc2ncnc3[nH]ncc23)cc1)Nc1ccc(Cl)c(C(F)(F)F)c1`, which IC50 (MAP3K12 (human) [1]) is on record?
**A.** The IC50 was greater than 10 µM.

**Q.** And the kinase still bound, per cent of control (CASK (human))?
**A.** The kinase still bound, per cent of control was 20%.

**Q.** What about the kinase still bound, per cent of control (MAP2K2 (human)) of the same molecule?
**A.** Its kinase still bound, per cent of control is 60%.

**Q.** What about the kinase still bound, per cent of control (FLT3 (human)) of the same molecule?
**A.** The kinase still bound, per cent of control was 0%.

**Q.** And the kinase still bound, per cent of control (MAP3K12 (human) [2])?
**A.** The kinase still bound, per cent of control was 100%.

**Q.** And the kinase still bound, per cent of control (MAP4K1 (human))?
**A.** Its kinase still bound, per cent of control is 61%.

**Q.** And the kinase still bound, per cent of control (PLK3 (human))?
**A.** The kinase still bound, per cent of control was 16%.

**Q.** What about the kinase still bound, per cent of control (ACVR2B (human)) of the same molecule?
**A.** The kinase still bound, per cent of control was 100%.

**Q.** And the kinase still bound, per cent of control (CDK11B (human))?
**A.** The kinase still bound, per cent of control was 69%.
